The target in experiment [1] is T1, Human Factor XIIa (hFXIIa) (Homo sapiens, UniProt P00748).
T1 construct: purchased Enzyme Research Laboratories
T1 sequence (P00748 373-615 limits assumed): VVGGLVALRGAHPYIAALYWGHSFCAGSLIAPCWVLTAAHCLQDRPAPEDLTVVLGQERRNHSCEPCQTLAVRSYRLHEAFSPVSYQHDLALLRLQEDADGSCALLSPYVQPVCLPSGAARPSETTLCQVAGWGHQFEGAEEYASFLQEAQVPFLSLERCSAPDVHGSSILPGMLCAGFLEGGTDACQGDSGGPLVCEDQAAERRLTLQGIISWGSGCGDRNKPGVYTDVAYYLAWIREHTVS
T1 sequence (P00748 20-372 partner limits assumed): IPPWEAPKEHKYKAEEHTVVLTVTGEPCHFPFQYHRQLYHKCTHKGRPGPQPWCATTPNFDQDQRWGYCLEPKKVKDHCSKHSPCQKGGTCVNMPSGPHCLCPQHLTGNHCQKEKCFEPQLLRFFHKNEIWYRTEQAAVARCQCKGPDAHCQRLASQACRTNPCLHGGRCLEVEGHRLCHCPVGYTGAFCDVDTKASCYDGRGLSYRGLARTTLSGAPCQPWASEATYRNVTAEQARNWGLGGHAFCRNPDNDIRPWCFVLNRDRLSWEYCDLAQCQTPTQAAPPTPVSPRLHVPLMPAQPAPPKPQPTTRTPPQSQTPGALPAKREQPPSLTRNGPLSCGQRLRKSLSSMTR
Briefly: Determination of Human Factor XIIa (hFXIIa) inhibition, fluorogenic substrate IC50 assay. Conditions: fluorogenic substrate H-DPro-Phe-Arg-AFC at Km, 25° C., read-out: Human FXIIa IC50. The experiment is classed as biochemical. Here is the method:
Determination of Human Factor XIIa (hFXIIa) inhibition
The Km for the cleavage of the substrate by hFXIIa was determined by standard transformation of the Michaelis-Menten equation, with subsequent inhibition assays performed at substrate Km concentration.

The target in the next experiment is FXa (Homo sapiens, UniProt P00742). The experiment can be described thus: Related protease inhibition: FXa, fluorogenic substrate. The experiment is classed as biochemical. To be noted: fluorogenic substrate at Km, 25° C.; H1-H3 = % activity at 40 μM. The method, then:
Human serine protease enzyme Plasma Kallikrein, KLK1, FXa, Plasmin, Thrombin and Trypsin were assayed for enzymatic activity using an appropriate fluorogenic substrate at Km concentration, FXIa at fixed substrate concentration of 100 μM and various concentrations of the test compound.

Bounds are passed on as bounds.

FXa, sequence (P00742 235-488 limits assumed): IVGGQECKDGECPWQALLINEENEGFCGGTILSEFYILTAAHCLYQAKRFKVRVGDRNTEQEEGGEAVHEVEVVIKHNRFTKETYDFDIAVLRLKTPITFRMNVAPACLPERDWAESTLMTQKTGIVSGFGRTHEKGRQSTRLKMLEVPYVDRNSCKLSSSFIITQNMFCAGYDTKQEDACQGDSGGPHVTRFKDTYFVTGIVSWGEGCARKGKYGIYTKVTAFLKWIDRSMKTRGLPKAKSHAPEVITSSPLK
FXa, sequence (P00742 41-179 partner limits assumed): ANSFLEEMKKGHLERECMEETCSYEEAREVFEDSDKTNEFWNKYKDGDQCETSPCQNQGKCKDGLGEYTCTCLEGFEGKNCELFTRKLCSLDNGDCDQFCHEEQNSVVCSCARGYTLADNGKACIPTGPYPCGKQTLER

With `O=C(NCC1CC1)c1nn(-c2cccc(Cl)c2)c2c1CCN(c1cc3c(cn1)CCN(CCO)C3)C2=O` [Example 1118, 1-(3-chlorophenyl)-N-(cyclopropylmethyl)-6-(6-(2-hydroxyethyl)-5,6,7,8-tetrahydro-2,6-naphthyridin-3-yl)-7-oxo-4,5,6,7-tetrahydro-1H-pyrazolo[3,4-c]pyridine-3-carboxamide], the IC50 in experiment [1] is 100 to 300 nM; on FXa it was more than 40000 nM. For `COc1ccnc(CNC(=O)c2nn(-c3cccc(Cl)c3)c3c2CCN(c2ccc4c(c2)CN(CCO)CC4)C3=O)c1` [Example 1230, 1-(3-chlorophenyl)-6-(2-(2-hydroxyethyl)-1,2,3,4-tetrahydroisoquinolin-7-yl)-N-((4-methoxypyridin-2-yl)methyl)-7-oxo-4,5,6,7-tetrahydro-1H-pyrazolo[3,4-c]pyridine-3-carboxamide] the same measures were 10 to 100 nM and 10000 to 40000 nM. For `Cc1cc(CNC(=O)c2nn(-c3cccc(Cl)c3)c3c2CCN(c2ccc4c(c2)C(=O)N(C)CC(=O)N4C)C3=O)nn1C` [Example 1372, 1-(3-chlorophenyl)-N-((1,5-dimethyl-1H-pyrazol-3-yl)methyl)-6-(1,4-dimethyl-2,5-dioxo-2,3,4,5-tetrahydro-1H-benzo[e][1,4]diazepin-7-yl)-7-oxo-4,5,6,7-tetrahydro-1H-pyrazolo[3,4-c]pyridine-3-carboxamide], in that order: 300 to 1000 nM and 10000 to 40000 nM. For the compound `CN1CCc2ccc(N3CCc4c(C(=O)NC5COC5)nn(-c5cccc(Cl)c5)c4C3=O)cc2C1=O` [Example 1342, 1-(3-chlorophenyl)-6-(2-methyl-1-oxo-1,2,3,4-tetrahydroisoquinolin-7-yl)-N-(oxetan-3-yl)-7-oxo-4,5,6,7-tetrahydro-1H-pyrazolo[3,4-c]pyridine-3-carboxamide], the half-inhibitory concentration (IC50) in experiment [1] was 300 to 1000 nM; against FXa it was more than 40000 nM. For the compound `CN1CCc2ccc(N3CCc4c(C(=O)NC(CO)c5cccnc5)nn(-c5cccc(Cl)c5)c4C3=O)cc2C1=O` (stereo not drawn) [Example 1187, 1-(3-chlorophenyl)-N-(2-hydroxy-1-(pyridin-3-yl)ethyl)-6-(2-methyl-1-oxo-1,2,3,4-tetrahydroisoquinolin-7-yl)-7-oxo-4,5,6,7-tetrahydro-1H-pyrazolo[3,4-c]pyridine-3-carboxamide], the half-inhibitory concentration (IC50) in experiment [1] is 300 to 1000 nM; at FXa, more than 40000 nM. For `Cc1cc(CNC(=O)c2nn(-c3cccc(Cl)c3)c3c2CCN(c2ccc4c(c2)C(=O)N(CCO)[C@H](C)CO4)C3=O)nn1C` [Example 1329, (R)-1-(3-chlorophenyl)-N-((1,5-dimethyl-1H-pyrazol-3-yl)methyl)-6-(4-(2-hydroxyethyl)-3-methyl-5-oxo-2,3,4,5-tetrahydrobenzo[f][1,4]oxazepin-7-yl)-7-oxo-4,5,6,7-tetrahydro-1H-pyrazolo[3,4-c]pyridine-3-carboxamide], in that order: 300 to 1000 nM and more than 4000 nM. For `C[C@H](NC(=O)c1nn(-c2cccc(Cl)c2)c2c1CCN(c1ccc3c(c1)C(=O)N(C)CC3)C2=O)C(=O)O` [Example 1391, (1-(3-chlorophenyl)-6-(2-methyl-1-oxo-1,2,3,4-tetrahydroisoquinolin-7-yl)-7-oxo-4,5,6,7-tetrahydro-1H-pyrazolo[3,4-c]pyridine-3-carbonyl)-L-alanine], in that order: 300 to 1000 nM and more than 40000 nM. For `Cc1ccncc1CNC(=O)c1nn(-c2cccc(Cl)c2)c2c1CCN(c1cccc(CN3CCCCC3)c1)C2=O` [Example 1177, 1-(3-chlorophenyl)-N-((4-methylpyridin-3-yl)methyl)-7-oxo-6-(3-(piperidin-1-ylmethyl)phenyl)-4,5,6,7-tetrahydro-1H-pyrazolo[3,4-c]pyridine-3-carboxamide], in that order: 10 to 100 nM and more than 40000 nM. Turning to `O=C(c1nn(-c2cccc(Cl)c2)c2c1CCN(c1cccc(CN3CCCCC3)c1)C2=O)N1CCCC1` [Example 1009, 1-(3-chlorophenyl)-6-(3-(piperidin-1-ylmethyl)phenyl)-3-(pyrrolidine-1-carbonyl)-1,4,5,6-tetrahydro-7H-pyrazolo[3,4-c]pyridin-7-one], the IC50 in experiment [1] was 3000 to 10000 nM; on FXa it was more than 100000 nM. For `COc1cccnc1CNC(=O)c1nn(-c2cccc(Cl)c2)c2c1CCN(c1cc3c(nn1)CCN(CCO)C3)C2=O` [Example 1229, 1-(3-chlorophenyl)-6-(6-(2-hydroxyethyl)-5,6,7,8-tetrahydropyrido[4,3-c]pyridazin-3-yl)-N-((3-methoxypyridin-2-yl)methyl)-7-oxo-4,5,6,7-tetrahydro-1H-pyrazolo[3,4-c]pyridine-3-carboxamide] the same measures were 100 to 300 nM and 10000 to 40000 nM. For `Cc1cc(CNC(=O)c2nn(-c3cccc(Cl)c3)c3c2CCN(c2ccc4c(c2)C(=O)N(CC(N)=O)CC4)C3=O)n[nH]1` [Example 1321, 6-(2-(2-amino-2-oxoethyl)-1-oxo-1,2,3,4-tetrahydroisoquinolin-7-yl)-1-(3-chlorophenyl)-N-((5-methyl-1H-pyrazol-3-yl)methyl)-7-oxo-4,5,6,7-tetrahydro-1H-pyrazolo[3,4-c]pyridine-3-carboxamide] the same measures were 10 to 100 nM and 1000 to 3000 nM. For `O=C(NCc1cccnc1)c1nn(-c2cccc(Cl)c2)c2c1CCN(c1cccc(CN3CCCCC3)c1)C2=O` [Example 1003, 1-(3-chlorophenyl)-7-oxo-6-(3-(piperidin-1-ylmethyl)phenyl)-N-(pyridin-3-ylmethyl)-4,5,6,7-tetrahydro-1H-pyrazolo[3,4-c]pyridine-3-carboxamide], in that order: 300 to 1000 nM and more than 100000 nM.

On to `CNC(=O)c1nn(-c2cccc(Cl)c2)c2c1CCN(c1ccc3c(c1)C(=O)N(C)CC3)C2=O` [Example 1334, 1-(3-chlorophenyl)-N-methyl-6-(2-methyl-1-oxo-1,2,3,4-tetrahydroisoquinolin-7-yl)-7-oxo-4,5,6,7-tetrahydro-1H-pyrazolo[3,4-c]pyridine-3-carboxamide], for which the figures for the IC50 (in experiment [1]; at FXa) were 300 to 1000 nM and more than 40000 nM, respectively. For `O=C(NCC1CC1)c1nn(-c2cccc(Cl)c2)c2c1CCN(c1ccc3c(c1)C(=O)N(CCO)CCO3)C2=O` [Example 1289, 1-(3-chlorophenyl)-N-(cyclopropylmethyl)-6-(4-(2-hydroxyethyl)-5-oxo-2,3,4,5-tetrahydrobenzo[f][1,4]oxazepin-7-yl)-7-oxo-4,5,6,7-tetrahydro-1H-pyrazolo[3,4-c]pyridine-3-carboxamide], the half-maximal inhibitory concentration (IC50) in experiment [1] is 100 to 300 nM. The same measure, in the same setting: the figure for `O=C(NCc1cnoc1)c1nn(-c2cccc(Cl)c2)c2c1CCN(c1ccc3c(c1)CN(CCO)CC3)C2=O` [Example 1167, 1-(3-chlorophenyl)-6-(2-(2-hydroxyethyl)-1,2,3,4-tetrahydroisoquinolin-7-yl)-N-(isoxazol-4-ylmethyl)-7-oxo-4,5,6,7-tetrahydro-1H-pyrazolo[3,4-c]pyridine-3-carboxamide] is 100 to 300 nM; for `CN(C(=O)c1cccc(N2CCc3c(C(=O)NCC4CC4)nn(-c4cccc(Cl)c4)c3C2=O)c1)C1CC1` [Example 1270, 1-(3-chlorophenyl)-6-(3-(cyclopropyl(methyl)carbamoyl)phenyl)-N-(cyclopropylmethyl)-7-oxo-4,5,6,7-tetrahydro-1H-pyrazolo[3,4-c]pyridine-3-carboxamide] it is 10000 to 40000 nM. On the same count and under the same terms, next, `O=C(NCC1CC1)c1nn(-c2cccc(Cl)c2)c2c1CCN(c1cccc(CN3CCCC3)c1)C2=O` [Example 1072, 1-(3-Chlorophenyl)-N-(cyclopropylmethyl)-7-oxo-6-(3-(pyrrolidin-1-ylmethyl)phenyl)-4,5,6,7-tetrahydro-1H-pyrazolo[3,4-c]pyridine-3-carboxamide]: 1000 to 3000 nM; `CN1CCc2ncc(N3CCc4c(C(=O)NCC5CC5)nn(-c5cccc(Cl)c5)c4C3=O)cc2C1=O` [Example 1301, 1-(3-chlorophenyl)-N-(cyclopropylmethyl)-6-(6-methyl-5-oxo-5,6,7,8-tetrahydro-1,6-naphthyridin-3-yl)-7-oxo-4,5,6,7-tetrahydro-1H-pyrazolo[3,4-c]pyridine-3-carboxamide]: 1000 to 3000 nM. Still for that read-out and setting: the figure for `Cn1nccc1CNC(=O)c1nn(-c2cccc(Cl)c2)c2c1CCN(c1ccc3c(c1)CN(CCO)CC3)C2=O` [Example 1088, 1-(3-chlorophenyl)-6-(2-(2-hydroxyethyl)-1,2,3,4-tetrahydroisoquinolin-7-yl)-N-((1-methyl-1H-pyrazol-5-yl)methyl)-7-oxo-4,5,6,7-tetrahydro-1H-pyrazolo[3,4-c]pyridine-3-carboxamide] is 100 to 300 nM. For `CN(C)C(=O)c1cc(N2CCc3c(C(=O)NCC4CC4)nn(-c4cccc(Cl)c4)c3C2=O)ccn1` [Example 1278, 1-(3-chlorophenyl)-N-(cyclopropylmethyl)-6-(2-(dimethylcarbamoyl)pyridin-4-yl)-7-oxo-4,5,6,7-tetrahydro-1H-pyrazolo[3,4-c]pyridine-3-carboxamide], the IC50 in experiment [1] is 3000 to 10000 nM.

Source of the values: patent US20260132132A1, “3A,4,5,6-TETRAHYDRO-1 H-PYRAZOLO[3,4-C]PYRIDIN-7(7AH)-ONE DERIVATIVES AS FACTOR XIIA INHIBITORS” (KALVISTA PHARMACEUTICALS LIMITED, priority 2022, published 2026).
